# Experimental data: patent publication US7235588B2, “Method for reducing hypertension and heart failure” (The Research Foundation of State University of New York, priority 2001, dated 2007)
# “Also recorded” adds a separate entry of the source. Where two headings read alike, the source gives them in different places.
# What was measured:
# rat hearts [1] = assay: Myocardial function of spontaneously beating working hearts subjected to ischemia/reperfusion
# rat hearts [2] = assay: Myocardial infarct size (triphenyl tetrazolium staining) after ischemia/reperfusion; conditions: FIG. 4B
# Method: To gain insight into the physiological basis for cardioprotection afforded by tyrphostin AG490, the extent of cardiomyocyte infarct size and apoptosis were measured. On termination of treatment with tyrphostin AG490, hearts were immersed in 1% triphenyl tetrazolium solution in phosphate buffer (Na2HPO4 88 mmol/l, NaH2PO4 1.8 mmol/l) for 10 min. at 37° C. and stored at −70° C. for processing. Frozen hearts (ventricular tissue) were sliced transversely in a plane perpendicular to the apicobasal axis into 0.5 mm thick sections, blotted dry, placed between microscope slides, and scanned on a Hewlett-Packard Scanjet 5 p single-pass flatbed scanner. With the NIH 1.61 image processing software, each digitized image was subjected to equivalent degrees of background subtraction, brightness, and contrast enhancement for improved clarity and distinctness. Risk (equivalent to total left ventricular muscle mass) and infarct zones of each slice were traced, and the respective areas were calculated in terms of pixels. The weight of each slice was then recorded to facilitate the expression of total and infarct masses of each slice in grams. The risk and infarct volumes of each slice in cubic centimeters were then calculated on the basis of slice weight to correct for any errors due to nonuniformity of heart slice thickness. […]
# Jak2 [3] = target: Jak2 (Homo sapiens, UniProt O60674); conditions: cited from earlier work
# male C57/BL6 mice = assay: Transverse aortic constriction (TAC) induced left ventricular hypertrophy in mice; assay type: in vivo
# Method: Pressure overload was produced by transverse aortic constriction (TAC) to induce left ventricular hypertrophy (FIG. 1). Briefly, male C57/BL6 mice, weighing 20 to 24 grams, were anesthetized by intra-peritoneal injection of a cocktail of ketamine (100 mg/kg) and xylazine ([…]). The mice were shaved, restrained, and orally intubated (under direct vision via a vertical cervical incision) using a 22 guage blunt feeding needle. Respiration was artificially controlled (tidal volume of 0.1 to 0.3 ml) at a respiratory rate of 110 to 150 breaths/minute using a ventilator (Harvard Apparatus Rodent Ventilator, model 683). A median sternotomy was performed and the sternum retracted. The thymus was retracted anteriorly and the aortic arch identified and ligated (using 8.0 nylon suture; Ethicon) between the innominate and left common carotid artery with an overlying 27-guage needle; and then the needle removed to leave a discrete region of stenosis. The chest was then closed in two layers (using 6.0 vicryl suture, Ethicon) and the pneumothorax evacuated. Some mice were subjected to a sham operation in which the aortic arch was visualized but not banded. The mice were then extubated and monitored post-op for 3 to 12 hours. The survival rate at the end of the learning period is greater than 90%.
# Nine days post-op, the hearts were removed from heparinized (500 U) mice and euthanized with a lethal dose of pentobarbital (150 mg/kg). The hearts were analyzed by visual inspection of a cross-section of the heart (FIG. 2A), determination of heart to body weight ratio (FIG. 2B), and light microscopy of the cardiomyocytes in the left ventricular (FIG. 2C), and activation of artiel natuiretic factor (ANF), a specific molecular marker for hypertrophy (FIG. 3). Based on these determinations, all trans-aortic constricted mice developed well-defined left ventricular hypertrophy.
# To determine whether tyrphostin AG490 could reverse the hypertrophy induced by traverse aortic constriction, tyrphostin AG490 (5 μM) was administered to the mice, intra-peritoneal, 24 hours before being subjected to transverse aortic constriction and every 24 hours thereafter for the duration of the study (9 days).
# Jak2 [4] = target: T1, Jak2 (Rattus norvegicus, UniProt Q62689); assay: Phosphotyrosine assay of Jak2 in hearts subjected to ischemia/reperfusion; conditions: ischemic heart, FIG. 6A
# T1 construct: nuclear extracts from hearts subjected to ischemia/reperfusion in presence of absence of tyrphostin AG490 were immunoprecipitated; from tissue; host or cells: rat heart (nuclear extracts)
# Method: Rats were pretreated with 5 or 50 μmol/L of tyrphostin AG490 24 h prior to ischemia/reperfusion followed by chronic administration of tyrphostin AG490 during the process of ischemia/reperfusion. A phosphotyrosine assay was performed. Briefly, nuclear extracts from hearts subjected to ischemia/reperfusion in presence of absence of tyrphostin AG490 were immunoprecipitated with anti-phosphotyrosine antibodies (4G10). Fifty microliters of 50% protein A-agarose, prewashed in lysis buffer (Upstate Biotechnology) was then added and the mixture was incubated for 2 hr at 4° C. Each sample was washed with washing buffer containing 150 mM NaCl, 50 mM Tris-HCL (pH 7.4), 5 mM EDTA, 0.25% Triton X-100, 2 mM phenylmethylsulfonyl fluoride, aprotinin (0.2 unit/ml), 1 mM Na3VO4, and 1 mM NaF. Samples were eluted in 2× Laernmli's sample buffer. Proteins were separated on a 7.5% SDS/polyacrylamide gel and transferred to nitrocellulose membrane, Nitropure (Micron Separations, Westboro, Mass.). Blots were probed with polyclonal antibody against Jak2 and developed according to the chemiluminescence protocol. Administration of tyrphostin AG490 in perfusion medium was inhibitory at both 5 and 50 μmol/L for pliosphorylation of Jak2, which was activated readily in the ischemic heart in absence of the inhibitor (FIG. 6A).
# [5] = first 60 min of reperfusion, treated groups (5 and 50 μmol/L)
# Sequence of Jak2 (Homo sapiens, UniProt O60674) (O60674 whole entry, species assumed): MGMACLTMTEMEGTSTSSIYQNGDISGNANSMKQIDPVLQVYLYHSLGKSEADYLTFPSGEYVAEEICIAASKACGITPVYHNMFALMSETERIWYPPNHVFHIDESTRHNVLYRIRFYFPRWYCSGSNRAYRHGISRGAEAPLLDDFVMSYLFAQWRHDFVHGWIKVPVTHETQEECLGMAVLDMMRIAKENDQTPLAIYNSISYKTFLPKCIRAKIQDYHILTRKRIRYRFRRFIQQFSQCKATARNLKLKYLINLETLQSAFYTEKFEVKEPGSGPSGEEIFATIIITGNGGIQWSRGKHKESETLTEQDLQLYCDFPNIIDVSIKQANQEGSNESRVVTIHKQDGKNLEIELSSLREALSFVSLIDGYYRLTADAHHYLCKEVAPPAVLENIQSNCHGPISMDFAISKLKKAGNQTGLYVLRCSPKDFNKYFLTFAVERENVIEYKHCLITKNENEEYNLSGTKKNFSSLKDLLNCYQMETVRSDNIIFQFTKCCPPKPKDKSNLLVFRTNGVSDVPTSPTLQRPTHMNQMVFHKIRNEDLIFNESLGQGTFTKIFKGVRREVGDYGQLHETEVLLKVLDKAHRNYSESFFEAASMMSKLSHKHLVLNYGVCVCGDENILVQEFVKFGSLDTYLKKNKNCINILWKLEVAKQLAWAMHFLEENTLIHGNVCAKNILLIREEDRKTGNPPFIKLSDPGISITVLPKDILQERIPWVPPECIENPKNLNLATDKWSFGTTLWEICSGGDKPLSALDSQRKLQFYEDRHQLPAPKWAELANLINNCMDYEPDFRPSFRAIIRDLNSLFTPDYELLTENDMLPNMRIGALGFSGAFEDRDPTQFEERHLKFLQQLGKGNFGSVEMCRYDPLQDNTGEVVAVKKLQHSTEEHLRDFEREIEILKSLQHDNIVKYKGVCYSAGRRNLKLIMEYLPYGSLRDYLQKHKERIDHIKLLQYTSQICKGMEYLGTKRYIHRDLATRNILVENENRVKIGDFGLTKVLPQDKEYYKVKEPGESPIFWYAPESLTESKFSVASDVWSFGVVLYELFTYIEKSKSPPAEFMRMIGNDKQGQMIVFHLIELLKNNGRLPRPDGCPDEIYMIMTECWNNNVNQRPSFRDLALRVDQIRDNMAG
# T1 sequence (Q62689 whole entry, the tested form may be a part): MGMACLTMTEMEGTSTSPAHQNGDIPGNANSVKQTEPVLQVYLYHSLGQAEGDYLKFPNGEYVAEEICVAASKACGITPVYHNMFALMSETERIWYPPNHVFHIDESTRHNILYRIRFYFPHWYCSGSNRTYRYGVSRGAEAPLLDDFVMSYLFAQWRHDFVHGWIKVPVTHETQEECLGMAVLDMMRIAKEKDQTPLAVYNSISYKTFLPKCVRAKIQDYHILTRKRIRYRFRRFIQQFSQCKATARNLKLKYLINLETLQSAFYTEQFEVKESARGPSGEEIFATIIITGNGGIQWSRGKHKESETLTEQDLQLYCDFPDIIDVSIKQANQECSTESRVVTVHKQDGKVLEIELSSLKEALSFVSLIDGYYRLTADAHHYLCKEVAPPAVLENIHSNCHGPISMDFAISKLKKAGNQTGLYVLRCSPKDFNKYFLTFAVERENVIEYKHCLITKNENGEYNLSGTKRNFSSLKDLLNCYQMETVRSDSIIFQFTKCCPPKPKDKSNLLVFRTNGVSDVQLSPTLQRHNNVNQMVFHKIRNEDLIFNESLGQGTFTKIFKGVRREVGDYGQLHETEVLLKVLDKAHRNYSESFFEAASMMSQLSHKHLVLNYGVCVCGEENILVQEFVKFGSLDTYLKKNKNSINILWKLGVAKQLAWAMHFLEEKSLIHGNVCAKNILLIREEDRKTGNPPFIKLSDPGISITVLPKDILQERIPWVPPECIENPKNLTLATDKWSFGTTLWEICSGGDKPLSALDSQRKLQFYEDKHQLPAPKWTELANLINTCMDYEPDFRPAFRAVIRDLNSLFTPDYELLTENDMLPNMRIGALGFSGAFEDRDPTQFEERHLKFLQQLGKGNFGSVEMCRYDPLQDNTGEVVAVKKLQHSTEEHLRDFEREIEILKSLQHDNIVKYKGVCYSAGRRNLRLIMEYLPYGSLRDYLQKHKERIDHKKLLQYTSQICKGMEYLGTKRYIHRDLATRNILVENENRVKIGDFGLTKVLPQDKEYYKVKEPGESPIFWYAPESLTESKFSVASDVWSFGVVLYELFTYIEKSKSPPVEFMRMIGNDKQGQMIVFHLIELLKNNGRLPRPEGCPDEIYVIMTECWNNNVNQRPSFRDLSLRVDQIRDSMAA
smiles,measurement,setting,value
N#C/C(=C\c1ccc(O)c(O)c1)C(=O)NCc1ccccc1 [tyrphostin AG490],cardioprotection (developed pressure and dP/dt),rat hearts [1]; 5 μmol/L,able to provide cardioprotection to approximately the same degree
same,Developed pressure,"rat hearts [1]; 5 μmol/L, 60 min of reperfusion (R-60)",86±2.5 mm Hg
same,Developed pressure,"rat hearts [1]; 5 μmol/L, 90 min of reperfusion (R-90)",69±5 mm HG
same,Developed pressure,"rat hearts [1]; 5 μmol/L, 120 min of reperfusion (R-120)",60.85±4 mm Hg
same,dp/dt,"rat hearts [1]; 5 μmol/L, R-30",3818±49.46
same,dp/dt,"rat hearts [1]; 5 μmol/L, R-60",3362±53.14
same,dp/dt,"rat hearts [1]; 5 μmol/L, R-90",2840±88
same,dp/dt,"rat hearts [1]; 5 μmol/L, R-120",2552±58.9
same,baseline value for dP/dt,rat hearts [1]; 50 μmol/L,increased slightly
same,cardioprotection (developed pressure and dP/dt),rat hearts [1]; 50 μmol/L,able to provide cardioprotection to approximately the same degree
same,Developed pressure,"rat hearts [1]; 50 μmol/L, 60 min of reperfusion (R-60)",86±4.8 mm Hg
same,Developed pressure,"rat hearts [1]; 50 μmol/L, 90 min of reperfusion (R-90)",72.7±5.7 mm HG
same,Developed pressure,"rat hearts [1]; 50 μmol/L, 120 min of reperfusion (R-120)",53.75±7 mm Hg
same,dp/dt,"rat hearts [1]; 50 μmol/L, R-30",4156±238
same,dp/dt,"rat hearts [1]; 50 μmol/L, R-60",3840±140
same,dp/dt,"rat hearts [1]; 50 μmol/L, R-90",3194.7±228
same,dp/dt,"rat hearts [1]; 50 μmol/L, R-120",2626±269
same,dP/dt and developed pressure versus untreated group,rat hearts [1]; all treated groups (5 and 50 μmol/L),significantly higher
same,Developed pressure,rat hearts [1]; [5],minimally lowered
same,dP/dt value,rat hearts [1]; [5],not lowered
same,myocardial infarct size,rat hearts [2],reduced myocardial infarct size; also recorded: reduction of infarct size
same,"Jak2 inhibition, selectivity",Jak2 [3]; listed as AG490,selectively inhibits Jak2
same,"Jak2 inhibition, selectivity",Jak2 [3]; listed as Tyrphostin AG490,"selective, specific, and potent"
same,reversal of hypertrophy induced by transverse aortic constriction,"male C57/BL6 mice; 5 μM intra-peritoneal, 24 h before TAC and every 24 h for 9 days",remarkable reversal of hypertrophy
same,LVH by visual inspection of cross section of the heart,"male C57/BL6 mice; FIG. 2A, TAC mice",decrease in LVH
same,ratio of heart weight to body weight,"male C57/BL6 mice; FIG. 2B, TAC mice",decrease in ratio of heart weight to body weight
same,hypertrophy of cardiomyocytes of left ventricle by light microscopy,"male C57/BL6 mice; FIG. 2C, TAC mice",decrease in hypertrophy
same,"ANF (atrial natriuretic factor, marker for hypertrophy)","male C57/BL6 mice; FIG. 3, during cardiac hypertrophy",ANF inhibition
same,phosphorylation of Jak2,Jak2 [4]; 5 μmol/L in perfusion medium,inhibitory
same,phosphorylation of Jak2,Jak2 [4]; 50 μmol/L in perfusion medium,inhibitory
